Laboratory results reported in patent US5753617A, “Peptide inhibitors of cellular adhesion” (Centocor, Inc., priority 1995, dated 1998).
Like-named read-outs stand apart in the source and are kept apart here. Where a SMILES comes first, the peptide text is derived from it. Bridges are numbered along the chain shown (N, C = ends). [ ]: non-standard residue; d: D form. The star is where a group is joined. NHBu = CCCCN*

Legend:
[1] = system: neutrophil influx in thioglycolate-induced peritonitis; experiment: Inhibition of neutrophil influx in a rat model of thioglycolate-induced peritonitis; type: in vivo
Procedure: CD-1 rats (175-200 g) were injected i.p. with 10 ml thioglycollate medium (BBL #21195/21196 lot#H1KBGP). At -5 minutes, 1.5 hours, and 3.5 hours post thioglycollate injection 5 rats were injected with D-arginyl-D-lysyl-cyclo(D-cysteinyl-glycyl-phenylalanyl-D-cysteinyl)-D-tryptophyl-D-threonyl-D-tryptophyl-D-valineamide (Preferred peptide (19)) (0.75 mls at -5, 0.25 mls at 1.5 and 0.25 mls at 3.5). 5 rats were injected with vehicle at the same time points (0.75 mls at -5, 0.50 mls at 1.5, and 0.25 mls at 3.5). 5 rats received thiogycollate only and served as controls. At 4 hours post thioglycollate injection all animals were sacrificed by CO2 asphyxiation. Neutrophils were harvested by flushing the peritoneal cavity with 50 mls of Hanks balanced salt solution w/o Ca and Mg (JHR Biosciences 55-02178P Lot# IL3697) containing 0.3% ultrapure EDTA (JT Baker 4040-01 lot# D42704). White cells were then counted using the Danam Vet 8 cell counter.

P-selectin = target: T1, P-selectin (Homo sapiens, UniProt P16109); experiment: Inhibition of human neutrophil adhesion to purified P-selectin immobilized on plastic wells; type: cell-based; conditions: inhibiting the binding of human neutrophils to P-selectin
T1 construct: P-selectin is isolated from human platelet lysates; from tissue; host or cells: human platelets (outdated platelet packs from a blood bank)
T1 sequence (P16109 42-830): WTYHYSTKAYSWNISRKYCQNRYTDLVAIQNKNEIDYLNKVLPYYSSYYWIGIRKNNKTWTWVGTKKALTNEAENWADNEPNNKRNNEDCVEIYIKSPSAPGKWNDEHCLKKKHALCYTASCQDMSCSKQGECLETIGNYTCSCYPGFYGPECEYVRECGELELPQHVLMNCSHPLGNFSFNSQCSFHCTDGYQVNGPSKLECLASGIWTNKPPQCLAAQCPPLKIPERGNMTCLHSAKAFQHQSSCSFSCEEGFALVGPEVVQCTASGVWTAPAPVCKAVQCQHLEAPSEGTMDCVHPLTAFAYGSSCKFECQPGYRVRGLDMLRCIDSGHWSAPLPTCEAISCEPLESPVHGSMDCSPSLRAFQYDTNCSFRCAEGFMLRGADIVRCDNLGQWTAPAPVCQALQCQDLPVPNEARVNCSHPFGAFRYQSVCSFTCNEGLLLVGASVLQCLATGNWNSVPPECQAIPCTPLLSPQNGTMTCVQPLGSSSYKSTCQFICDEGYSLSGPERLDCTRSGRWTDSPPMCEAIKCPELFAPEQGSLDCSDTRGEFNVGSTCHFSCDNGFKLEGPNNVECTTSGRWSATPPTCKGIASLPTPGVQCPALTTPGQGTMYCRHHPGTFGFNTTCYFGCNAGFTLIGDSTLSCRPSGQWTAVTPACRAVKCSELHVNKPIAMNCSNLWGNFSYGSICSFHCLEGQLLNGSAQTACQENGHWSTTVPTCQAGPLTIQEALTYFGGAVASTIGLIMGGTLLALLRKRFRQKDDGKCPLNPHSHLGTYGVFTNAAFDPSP
Procedure, shortened: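 Isolated human neutrophils (2×10^5 per well) in HBSS with Ca2+/Mg2+ and HSA added to wells coated overnight at 4° C with platelet-derived P-selectin (5 micrograms/mL), HSA-blocked; 20 min at 22° C. Nonadherent cells removed by inverted centrifugation at 150 g; adherent cells quantified by myeloperoxidase activity.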

[2] = disulfide bond, water

IC50 (P-selectin) | SMILES | decrease in neutrophil influx in response to thioglycolate stimulation ([1]; CD-1 rats, thioglycollate i.p., peptide injected at -5 minutes, 1.5 hours and 3.5 hours, peritoneal cells counted at 4 hours) | ring closure, yield of all isomers ([2]; from CCCCNC(=O)[C@H](CCC(N)=O)NC(=O)[C@@H](Cc1c[nH]c2ccccc12)NC(=O)[C@H](NC(=O)[C@@H](Cc1c[nH]c2ccccc12)NC(=O)[C@@H](CS)NC(=O)[C@H](Cc1ccccc1)NC(=O)CNC(=O)[C@@H](CS)NC(=O)[C@@H](CCCCN)NC(=O)[C@H](N)CCCNC(=N)N)[C@H](C)O, DMSO, 0.681 mM) | ring closure, yield of all isomers ([2]; from CC(C)[C@@H](NC(=O)[C@@H](Cc1c[nH]c2ccccc12)NC(=O)[C@H](NC(=O)[C@@H](Cc1c[nH]c2ccccc12)NC(=O)[C@@H](CS)NC(=O)[C@H](Cc1ccccc1)NC(=O)CNC(=O)[C@@H](CS)NC(=O)[C@@H](CCCCN)NC(=O)[C@H](N)CCCNC(=N)N)C(C)C)C(=O)O, air, Cu wire, ammonium acetate, 0.605 mM, 22.0 h) | inhibition of neutrophil influx (result in words) ([1]; rat thioglycolate-induced peritonitis, FIG. III)
6 µM | CC(C)[C@@H](NC(=O)[C@@H](Cc1c[nH]c2ccccc12)NC(=O)[C@H](NC(=O)[C@@H](Cc1c[nH]c2ccccc12)NC(=O)[C@H]1CSSC[C@@H](NC(=O)[C@@H](CCCCN)NC(=O)[C@H](N)CCCNC(=N)N)C(=O)NCC(=O)N[C@@H](Cc2ccccc2)C(=O)N1)[C@H](C)O)C(N)=O [(19)] (H-[dR][dK][dC]GF[dC][dW][dT][dW][dV]-NH2; disulfide 3-6) | 67% |  |  | 
8 µM | CCCCNC(=O)[C@H](CCC(N)=O)NC(=O)[C@@H](Cc1c[nH]c2ccccc12)NC(=O)[C@H](NC(=O)[C@@H](Cc1c[nH]c2ccccc12)NC(=O)[C@H]1CSSC[C@@H](NC(=O)[C@@H](CCCCN)NC(=O)[C@H](N)CCCNC(=N)N)C(=O)NCC(=O)N[C@@H](Cc2ccccc2)C(=O)N1)[C@H](C)O [(102)] (H-[dR][dK][dC]GF[dC][dW][dT][dW]Q-NHBu; disulfide 3-6) |  | 21.5% |  | 
42.7 µM | CC(C)[C@@H](NC(=O)[C@@H](Cc1c[nH]c2ccccc12)NC(=O)[C@H](NC(=O)[C@@H](Cc1c[nH]c2ccccc12)NC(=O)[C@H]1CSSC[C@@H](NC(=O)[C@@H](CCCCN)NC(=O)[C@H](N)CCCNC(=N)N)C(=O)NCC(=O)N[C@@H](Cc2ccccc2)C(=O)N1)C(C)C)C(=O)O [(103)] (H-[dR][dK][dC]GF[dC][dW][dV][dW][dV]-OH; disulfide 3-6) |  |  | 2.7% | 
 | CC(C)[C@@H](NC(=O)[C@@H](Cc1c[nH]c2ccccc12)NC(=O)[C@H](NC(=O)[C@@H](Cc1c[nH]c2ccccc12)NC(=O)[C@H]1CSSC[C@@H](NC(=O)[C@@H](CCCCN)NC(=O)[C@H](N)CCCNC(=N)N)C(=O)NCC(=O)N[C@@H](Cc2ccccc2)C(=O)N1)[C@H](C)O)C(N)=O [Preferred peptide (19), D-Arginyl-D-lysyl-cyclo(D-cysteinyl-glycyl-phenylalanyl-D-cysteinyl-)-D-tryptophyl-D-threonyl-D-tryptophyl-D-valine-amide] (H-[dR][dK][dC]GF[dC][dW][dT][dW][dV]-NH2; disulfide 3-6) |  |  |  | inhibition of neutrophil influx
